Test results reported in publication PMC12090182, “Repurposing of the RIPK1-Selective Benzo[1,4]oxazepin-4-one Scaffold for the Development of a Type III LIMK1/2 Inhibitor” (ACS Chemical Biology, 2025).

How the values were obtained:
Test in all cases: scanMAX KINOMEscan (Eurofins)
Assay type in all cases: binding
SRPK3 = SRPK3 (Homo sapiens, UniProt Q9UPE1); details: compound concentration 100 nM; Entrez SRPK3; read-out: Percent Control
From the text: (§1) Supplement cb5c00097_si_002.xlsx, sheet "Table S6 (Eurofins Selectivity)" | column: Percent Control

VPS34 = VPS34 (Homo sapiens, UniProt Q8NEB9); details: compound concentration 100 nM; Entrez PIK3C3; read-out: Percent Control
From the text: as §1

DYRK1A = DYRK1A (Homo sapiens, UniProt Q13627); details: 1000 nM, read-out: Percent Control
From the text: as §1

NEK11 = NEK11 (Homo sapiens, UniProt Q8NG66); details: 1000 nM, read-out: Percent Control
From the text: as §1

TGFBR2 = TGFBR2 (Homo sapiens, UniProt P37173); details: compound concentration 100 nM; Entrez TGFBR2; read-out: Percent Control
From the text: as §1

PIM3 = PIM3 (Homo sapiens, UniProt Q86V86); details: 1000 nM, read-out: Percent Control
From the text: as §1

ITK = ITK (Homo sapiens, UniProt Q08881); details: 1000 nM, read-out: Percent Control
From the text: as §1

ADCK3 = ADCK3 (Homo sapiens, UniProt Q8NI60); details: read-out: Percent Control
Sequence of ADCK3 (Q8NI60 163-647): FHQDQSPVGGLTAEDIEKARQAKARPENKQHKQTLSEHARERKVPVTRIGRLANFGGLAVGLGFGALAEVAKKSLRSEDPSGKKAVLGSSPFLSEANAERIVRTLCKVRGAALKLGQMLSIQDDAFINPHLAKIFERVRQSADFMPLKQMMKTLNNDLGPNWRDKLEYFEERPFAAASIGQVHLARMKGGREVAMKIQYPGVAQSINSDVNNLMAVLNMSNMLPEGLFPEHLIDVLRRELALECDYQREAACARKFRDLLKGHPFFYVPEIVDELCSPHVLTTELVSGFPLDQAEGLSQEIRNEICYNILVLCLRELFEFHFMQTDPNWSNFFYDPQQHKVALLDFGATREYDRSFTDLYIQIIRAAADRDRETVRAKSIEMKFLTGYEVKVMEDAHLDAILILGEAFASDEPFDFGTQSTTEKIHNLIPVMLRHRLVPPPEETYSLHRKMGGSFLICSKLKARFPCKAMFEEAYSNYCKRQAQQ
From the text: as §1

RIPK4 = RIPK4 (Homo sapiens, UniProt P57078); details: 1000 nM, read-out: Percent Control
From the text: as §1

[1] = target: RSK4(Kin.Dom.2-C-terminal) (Homo sapiens, UniProt Q9UK32); details: 1000 nM, read-out: Percent Control
From the text: as §1

CDK4-cyclinD1 = CDK4-cyclinD1 (Homo sapiens, UniProt P11802); details: 1000 nM, read-out: Percent Control
From the text: as §1

LCK = LCK (Homo sapiens, UniProt P06239); details: 1000 nM, read-out: Percent Control
From the text: as §1

MKNK1 = MKNK1 (Homo sapiens, UniProt Q9BUB5); details: 1000 nM, read-out: Percent Control
From the text: as §1

EPHA8 = EPHA8 (Homo sapiens, UniProt P29322); details: 1000 nM, read-out: Percent Control
From the text: as §1

PRKD1 = PRKD1 (Homo sapiens, UniProt Q15139); details: 1000 nM, read-out: Percent Control
From the text: as §1

BMX = BMX (Homo sapiens, UniProt P51813); details: read-out: Percent Control
Sequence of BMX (P51813 whole entry): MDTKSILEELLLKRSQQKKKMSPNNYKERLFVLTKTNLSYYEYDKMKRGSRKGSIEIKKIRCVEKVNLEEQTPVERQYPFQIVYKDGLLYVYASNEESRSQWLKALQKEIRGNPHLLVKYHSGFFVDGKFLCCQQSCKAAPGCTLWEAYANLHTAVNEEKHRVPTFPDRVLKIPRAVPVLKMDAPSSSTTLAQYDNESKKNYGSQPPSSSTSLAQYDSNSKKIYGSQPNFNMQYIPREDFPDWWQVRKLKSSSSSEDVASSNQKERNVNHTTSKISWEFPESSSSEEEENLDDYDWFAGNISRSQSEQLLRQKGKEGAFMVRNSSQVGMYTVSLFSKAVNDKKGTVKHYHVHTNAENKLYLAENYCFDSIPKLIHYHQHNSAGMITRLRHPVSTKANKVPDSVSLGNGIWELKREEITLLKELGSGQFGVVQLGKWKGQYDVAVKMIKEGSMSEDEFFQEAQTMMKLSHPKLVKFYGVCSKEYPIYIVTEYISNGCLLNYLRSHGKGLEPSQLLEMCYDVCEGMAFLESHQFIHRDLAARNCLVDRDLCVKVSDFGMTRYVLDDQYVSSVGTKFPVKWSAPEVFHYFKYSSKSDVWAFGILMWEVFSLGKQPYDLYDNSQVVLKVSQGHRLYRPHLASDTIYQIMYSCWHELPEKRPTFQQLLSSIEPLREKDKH
From the text: as §1

WNK4 = WNK4 (Homo sapiens, UniProt Q96J92); details: compound concentration 100 nM; Entrez WNK4; read-out: Percent Control
From the text: as §1

GSK3B = GSK3B (Homo sapiens, UniProt P49841); details: read-out: Percent Control
Sequence of GSK3B (P49841 whole entry): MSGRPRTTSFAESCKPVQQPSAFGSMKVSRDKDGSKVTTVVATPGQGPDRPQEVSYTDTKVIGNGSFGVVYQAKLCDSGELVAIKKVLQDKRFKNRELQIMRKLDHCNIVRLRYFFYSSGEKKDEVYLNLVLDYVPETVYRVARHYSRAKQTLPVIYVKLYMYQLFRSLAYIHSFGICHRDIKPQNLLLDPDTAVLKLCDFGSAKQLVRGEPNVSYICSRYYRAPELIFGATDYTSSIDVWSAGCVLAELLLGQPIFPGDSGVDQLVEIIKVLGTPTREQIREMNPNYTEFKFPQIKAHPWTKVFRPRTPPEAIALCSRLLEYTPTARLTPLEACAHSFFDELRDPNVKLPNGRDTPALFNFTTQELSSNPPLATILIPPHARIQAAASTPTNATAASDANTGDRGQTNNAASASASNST
From the text: as §1

IGF1R = IGF1R (Homo sapiens, UniProt P08069); details: read-out: Percent Control
Sequence of IGF1R (P08069 31-1367): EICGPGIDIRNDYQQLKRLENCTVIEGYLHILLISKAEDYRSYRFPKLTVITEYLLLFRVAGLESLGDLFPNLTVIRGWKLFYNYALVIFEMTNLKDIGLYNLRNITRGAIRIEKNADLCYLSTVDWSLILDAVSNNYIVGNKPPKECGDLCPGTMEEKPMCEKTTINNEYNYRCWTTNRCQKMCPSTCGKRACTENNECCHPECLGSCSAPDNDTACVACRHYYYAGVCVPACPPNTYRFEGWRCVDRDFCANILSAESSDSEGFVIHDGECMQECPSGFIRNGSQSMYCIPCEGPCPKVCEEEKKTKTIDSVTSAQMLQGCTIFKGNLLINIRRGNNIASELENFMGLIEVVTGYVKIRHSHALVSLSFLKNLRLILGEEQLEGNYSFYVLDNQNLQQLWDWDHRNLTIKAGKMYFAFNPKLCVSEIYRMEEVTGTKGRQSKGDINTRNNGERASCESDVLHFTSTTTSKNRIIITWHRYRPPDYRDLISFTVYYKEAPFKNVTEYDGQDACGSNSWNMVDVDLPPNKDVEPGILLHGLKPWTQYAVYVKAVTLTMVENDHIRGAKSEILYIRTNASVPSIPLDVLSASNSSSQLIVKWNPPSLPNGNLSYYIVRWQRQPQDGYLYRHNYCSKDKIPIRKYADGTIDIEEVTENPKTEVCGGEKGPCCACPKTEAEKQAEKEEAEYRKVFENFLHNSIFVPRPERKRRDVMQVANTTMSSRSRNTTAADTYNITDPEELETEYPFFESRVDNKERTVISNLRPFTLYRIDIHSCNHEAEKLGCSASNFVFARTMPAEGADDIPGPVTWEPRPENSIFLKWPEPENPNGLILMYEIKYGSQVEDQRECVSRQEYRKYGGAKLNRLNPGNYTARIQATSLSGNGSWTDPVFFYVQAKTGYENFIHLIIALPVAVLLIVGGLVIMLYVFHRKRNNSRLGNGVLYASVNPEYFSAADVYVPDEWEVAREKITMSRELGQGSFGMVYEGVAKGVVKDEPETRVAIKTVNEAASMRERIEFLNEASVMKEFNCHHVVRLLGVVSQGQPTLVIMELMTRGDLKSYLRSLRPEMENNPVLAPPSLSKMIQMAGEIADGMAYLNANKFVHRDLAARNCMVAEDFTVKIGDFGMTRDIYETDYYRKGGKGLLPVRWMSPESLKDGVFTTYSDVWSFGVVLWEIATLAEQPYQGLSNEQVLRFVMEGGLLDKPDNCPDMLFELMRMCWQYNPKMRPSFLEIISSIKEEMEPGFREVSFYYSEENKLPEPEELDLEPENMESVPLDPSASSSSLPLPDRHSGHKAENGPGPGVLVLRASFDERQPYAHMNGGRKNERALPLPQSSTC
From the text: as §1

EPHA6 = EPHA6 (Homo sapiens, UniProt Q9UF33); details: 1000 nM, read-out: Percent Control
From the text: as §1

ZAP70 = ZAP70 (Homo sapiens, UniProt P43403); details: compound concentration 100 nM; Entrez ZAP70; read-out: Percent Control
From the text: as §1

CDK9 = CDK9 (Homo sapiens, UniProt P50750); details: 1000 nM, read-out: Percent Control
From the text: as §1

FGFR1 = FGFR1 (Homo sapiens, UniProt P11362); details: read-out: Percent Control
Sequence of FGFR1 (P11362 22-822): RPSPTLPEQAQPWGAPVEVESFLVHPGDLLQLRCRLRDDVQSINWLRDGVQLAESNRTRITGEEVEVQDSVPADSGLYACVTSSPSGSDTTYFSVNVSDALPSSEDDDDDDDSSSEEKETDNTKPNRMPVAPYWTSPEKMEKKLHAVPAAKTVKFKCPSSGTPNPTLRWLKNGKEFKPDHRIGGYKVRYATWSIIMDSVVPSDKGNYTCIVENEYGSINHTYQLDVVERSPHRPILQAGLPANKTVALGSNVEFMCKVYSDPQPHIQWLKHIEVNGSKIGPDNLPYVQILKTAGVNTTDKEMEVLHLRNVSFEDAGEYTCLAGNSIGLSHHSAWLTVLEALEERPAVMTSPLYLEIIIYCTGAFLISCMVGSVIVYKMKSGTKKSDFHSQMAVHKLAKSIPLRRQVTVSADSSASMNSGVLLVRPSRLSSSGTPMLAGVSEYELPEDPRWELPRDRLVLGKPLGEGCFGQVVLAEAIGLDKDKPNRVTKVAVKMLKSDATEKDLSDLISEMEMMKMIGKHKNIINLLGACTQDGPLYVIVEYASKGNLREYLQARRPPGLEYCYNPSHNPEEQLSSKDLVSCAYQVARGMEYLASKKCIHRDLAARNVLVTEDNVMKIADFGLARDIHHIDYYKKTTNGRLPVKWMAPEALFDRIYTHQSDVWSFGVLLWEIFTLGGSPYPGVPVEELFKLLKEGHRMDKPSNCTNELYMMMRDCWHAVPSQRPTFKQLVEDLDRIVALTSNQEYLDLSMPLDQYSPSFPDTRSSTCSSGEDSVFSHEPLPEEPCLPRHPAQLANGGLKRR
From the text: as §1

PLK2 = PLK2 (Homo sapiens, UniProt Q9NYY3); details: compound concentration 100 nM; Entrez PLK2; read-out: Percent Control
From the text: as §1

PRKG1 = PRKG1 (Homo sapiens, UniProt Q13976); details: 1000 nM, read-out: Percent Control
From the text: as §1

MINK = MINK (Homo sapiens, UniProt Q8N4C8); details: 1000 nM, read-out: Percent Control
From the text: as §1

PRKCI = PRKCI (Homo sapiens, UniProt P41743); details: 1000 nM, read-out: Percent Control
From the text: as §1

SRMS = SRMS (Homo sapiens, UniProt Q9H3Y6); details: compound concentration 100 nM; Entrez SRMS; read-out: Percent Control
From the text: as §1

CIT = CIT (Homo sapiens, UniProt O14578); details: 1000 nM, read-out: Percent Control
From the text: as §1

DDR2 = DDR2 (Homo sapiens, UniProt Q16832); details: 1000 nM, read-out: Percent Control
From the text: as §1

AMPK-alpha2 = AMPK-alpha2 (Homo sapiens, UniProt P54646); details: read-out: Percent Control
Sequence of AMPK-alpha2 (P54646 whole entry): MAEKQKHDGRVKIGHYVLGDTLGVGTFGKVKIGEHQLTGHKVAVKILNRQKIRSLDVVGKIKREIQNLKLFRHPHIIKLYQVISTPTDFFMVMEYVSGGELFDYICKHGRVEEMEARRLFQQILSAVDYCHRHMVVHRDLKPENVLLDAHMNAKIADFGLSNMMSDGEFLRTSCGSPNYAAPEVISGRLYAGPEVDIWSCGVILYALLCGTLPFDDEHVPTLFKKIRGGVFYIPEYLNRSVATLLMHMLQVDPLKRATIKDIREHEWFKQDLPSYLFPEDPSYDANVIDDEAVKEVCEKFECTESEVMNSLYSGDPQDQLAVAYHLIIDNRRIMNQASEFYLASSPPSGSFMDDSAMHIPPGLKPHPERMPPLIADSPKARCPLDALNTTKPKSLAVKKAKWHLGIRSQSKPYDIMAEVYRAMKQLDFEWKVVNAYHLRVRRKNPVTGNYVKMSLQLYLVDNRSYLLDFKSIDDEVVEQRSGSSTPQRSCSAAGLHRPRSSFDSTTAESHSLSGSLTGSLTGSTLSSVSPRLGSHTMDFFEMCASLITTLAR
From the text: as §1

MKNK2 = MKNK2 (Homo sapiens, UniProt Q9HBH9); details: compound concentration 100 nM; Entrez MKNK2; read-out: Percent Control
From the text: as §1

TRKB = TRKB (Homo sapiens, UniProt Q16620); details: 1000 nM, read-out: Percent Control
From the text: as §1

MELK = MELK (Homo sapiens, UniProt Q14680); details: compound concentration 100 nM; Entrez MELK; read-out: Percent Control
From the text: as §1

PIP5K1C = PIP5K1C (Homo sapiens, UniProt O60331); details: compound concentration 100 nM; Entrez PIP5K1C; read-out: Percent Control
From the text: as §1

MST4 = MST4 (Homo sapiens, UniProt Q9P289); details: 1000 nM, read-out: Percent Control
From the text: as §1

Sequence of SRPK3 (Q9UPE1 whole entry): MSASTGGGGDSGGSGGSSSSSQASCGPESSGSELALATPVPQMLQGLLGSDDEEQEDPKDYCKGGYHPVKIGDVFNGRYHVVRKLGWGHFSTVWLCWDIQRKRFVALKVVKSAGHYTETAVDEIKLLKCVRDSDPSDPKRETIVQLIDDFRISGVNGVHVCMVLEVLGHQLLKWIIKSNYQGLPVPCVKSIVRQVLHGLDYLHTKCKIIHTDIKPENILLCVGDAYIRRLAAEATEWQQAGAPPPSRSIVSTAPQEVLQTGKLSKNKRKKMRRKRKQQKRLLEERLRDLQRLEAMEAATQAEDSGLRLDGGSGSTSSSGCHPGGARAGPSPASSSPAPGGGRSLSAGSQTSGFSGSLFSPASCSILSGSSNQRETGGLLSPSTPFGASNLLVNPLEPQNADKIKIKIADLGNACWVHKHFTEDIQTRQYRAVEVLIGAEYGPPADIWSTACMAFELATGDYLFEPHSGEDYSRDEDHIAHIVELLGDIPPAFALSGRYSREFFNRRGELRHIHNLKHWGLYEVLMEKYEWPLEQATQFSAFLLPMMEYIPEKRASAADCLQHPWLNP

Compound `CN1C(=O)[C@@H](N2CCc3c(nn(Cc4ccccc4)c3C(N)=O)C2=O)COc2cc(Cl)ccc21` [Compound 10, (S)-2-benzyl-6-(8-chloro-5-methyl-4-oxo-2,3,4,5-tetrahydrobenzo[b][1,4]oxazepin-3-yl)-7-oxo-4,5,6,7-tetrahydro-2H-pyrazolo[3,4-c]pyridine-3-carboxamide] has a remaining binding at 0.1 µM (SRPK3) of 100%, a remaining binding at 0.1 µM (VPS34) of 100% and a remaining binding at 1 µM (DYRK1A) of 93%. The remaining binding at 1 µM (NEK11) was 78%, the remaining binding at 0.1 µM (TGFBR2) was 100% and the remaining binding at 1 µM (PIM3) was 65%. It also gave a remaining binding at 1 µM (ITK) of 89%, a remaining binding at 1 µM (ADCK3; 1000 nM) of 100% and a remaining binding at 0.1 µM (ADCK3; compound concentration 100 nM, Entrez CABC1) of 100%. For the same compound, the remaining binding at 1 µM (RIPK4) was 83%, the remaining binding at 1 µM [1] was 93% and the remaining binding at 1 µM (CDK4-cyclinD1) was 72%. It also gave a remaining binding at 1 µM (LCK) of 82%, a remaining binding at 1 µM (MKNK1) of 77% and a remaining binding at 1 µM (EPHA8) of 97%. The remaining binding at 1 µM (PRKD1) was 97%, the remaining binding at 1 µM (BMX; 1000 nM) was 100% and the remaining binding at 0.1 µM (BMX; compound concentration 100 nM, Entrez BMX) was 100%. It also gave a remaining binding at 0.1 µM (WNK4) of 100%, a remaining binding at 1 µM (GSK3B; 1000 nM) of 100% and a remaining binding at 0.1 µM (GSK3B; compound concentration 100 nM, Entrez GSK3B) of 100%. For the same compound, the remaining binding at 1 µM (IGF1R; 1000 nM) was 100%, the remaining binding at 0.1 µM (IGF1R; compound concentration 100 nM, Entrez IGF1R) was 88% and the remaining binding at 1 µM (EPHA6) was 86%. It also gave a remaining binding at 0.1 µM (ZAP70) of 84%, a remaining binding at 1 µM (CDK9) of 85% and a remaining binding at 1 µM (FGFR1; 1000 nM) of 100%. The remaining binding at 0.1 µM (FGFR1; compound concentration 100 nM, Entrez FGFR1) was 88%, the remaining binding at 0.1 µM (PLK2) was 100% and the remaining binding at 1 µM (PRKG1) was 91%. It also gave a remaining binding at 1 µM (MINK) of 95%, a remaining binding at 1 µM (PRKCI) of 80% and a remaining binding at 0.1 µM (SRMS) of 90%. The remaining binding at 1 µM (CIT) was 79%, the remaining binding at 1 µM (DDR2) was 86% and the remaining binding at 1 µM (AMPK-alpha2; 1000 nM) was 100%. For the same compound, the remaining binding at 0.1 µM (AMPK-alpha2; compound concentration 100 nM, Entrez PRKAA2) was 100%, the remaining binding at 0.1 µM (MKNK2) was 94% and the remaining binding at 1 µM (TRKB) was 76%. For the same compound, the remaining binding at 0.1 µM (MELK) was 93%, the remaining binding at 0.1 µM (PIP5K1C) was 100% and the remaining binding at 1 µM (MST4) was 92%.
